The values that follow are results of earlier work, collected in publication PMC9516332 (Frontiers in Oncology, 2022).

Data set [1] has as its target panel of 255 wild-type kinases (Homo sapiens, UniProt O96017). To be noted: CHK2 kinase assay; 1 µmol/L single concentration; ref DOI: 10.1371/journal.pone.0092146; cited from earlier work.
Data set [2] deals with panel of 255 wild-type kinases (Homo sapiens, UniProt P06239). To be noted: kinase LCK; 1 µmol/L single concentration; ref DOI: 10.1371/journal.pone.0092146; cited from earlier work.
Data set [3] has as its target panel of 255 wild-type kinases (Homo sapiens, UniProt P42685). To be noted: kinase FRK; 1 µmol/L single concentration; ref DOI: 10.1371/journal.pone.0092146; cited from earlier work.
In data set [4] the target is panel of 255 wild-type kinases (Homo sapiens, UniProt P78362). As to conditions: kinase SRPK2; 1 µmol/L single concentration; ref DOI: 10.1371/journal.pone.0092146; cited from earlier work.
The target of data set [5] is T1, panel of 255 wild-type kinases (Homo sapiens, UniProt Q14164).
T1 sequence (Q14164 1-716): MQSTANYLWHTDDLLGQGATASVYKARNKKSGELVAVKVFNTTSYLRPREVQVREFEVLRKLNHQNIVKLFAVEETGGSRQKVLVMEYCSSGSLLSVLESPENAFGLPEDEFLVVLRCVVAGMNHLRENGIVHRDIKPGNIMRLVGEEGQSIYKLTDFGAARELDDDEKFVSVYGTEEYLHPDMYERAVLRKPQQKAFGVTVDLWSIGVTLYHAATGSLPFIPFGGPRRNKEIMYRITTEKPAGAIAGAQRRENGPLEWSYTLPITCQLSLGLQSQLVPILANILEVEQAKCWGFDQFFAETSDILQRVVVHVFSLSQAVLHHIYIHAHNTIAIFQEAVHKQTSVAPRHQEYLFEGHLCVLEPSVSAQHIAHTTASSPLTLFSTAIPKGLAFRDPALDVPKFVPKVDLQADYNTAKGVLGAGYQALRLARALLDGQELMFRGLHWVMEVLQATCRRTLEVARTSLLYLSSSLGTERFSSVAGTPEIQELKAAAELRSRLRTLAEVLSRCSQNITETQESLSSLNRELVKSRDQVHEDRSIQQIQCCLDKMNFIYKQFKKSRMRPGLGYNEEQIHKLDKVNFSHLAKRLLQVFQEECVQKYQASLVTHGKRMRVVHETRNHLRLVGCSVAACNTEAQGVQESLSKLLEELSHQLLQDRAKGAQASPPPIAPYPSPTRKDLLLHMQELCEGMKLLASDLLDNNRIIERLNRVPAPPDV
To be noted: kinase IKKε; 1 µmol/L single concentration; ref DOI: 10.1371/journal.pone.0092146; cited from earlier work.

The target of data set [6] is T2, panel of 255 wild-type kinases (Homo sapiens, UniProt Q8IWQ3).
T2 sequence (Q8IWQ3 1-736): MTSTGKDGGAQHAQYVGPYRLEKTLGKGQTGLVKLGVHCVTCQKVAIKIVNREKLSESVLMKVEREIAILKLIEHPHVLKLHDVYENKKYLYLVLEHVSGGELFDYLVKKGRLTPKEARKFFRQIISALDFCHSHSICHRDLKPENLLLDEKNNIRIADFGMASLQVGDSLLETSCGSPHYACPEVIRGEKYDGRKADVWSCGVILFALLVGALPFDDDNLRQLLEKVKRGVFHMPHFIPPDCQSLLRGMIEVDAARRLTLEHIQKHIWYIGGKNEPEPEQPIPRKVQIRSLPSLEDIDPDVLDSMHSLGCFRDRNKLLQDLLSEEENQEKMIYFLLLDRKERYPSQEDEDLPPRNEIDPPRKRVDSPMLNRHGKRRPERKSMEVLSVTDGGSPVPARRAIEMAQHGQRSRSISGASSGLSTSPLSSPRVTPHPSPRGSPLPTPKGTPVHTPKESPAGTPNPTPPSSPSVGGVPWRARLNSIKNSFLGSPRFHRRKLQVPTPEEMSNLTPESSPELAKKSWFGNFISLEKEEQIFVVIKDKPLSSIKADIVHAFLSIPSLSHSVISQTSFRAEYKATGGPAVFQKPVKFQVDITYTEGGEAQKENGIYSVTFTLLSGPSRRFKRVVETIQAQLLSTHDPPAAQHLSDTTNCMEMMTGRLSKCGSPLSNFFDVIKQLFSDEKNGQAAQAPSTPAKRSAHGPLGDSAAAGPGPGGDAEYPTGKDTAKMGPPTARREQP
As to conditions: BRSK2 kinase assay; 1 µmol/L single concentration; ref DOI: 10.1371/journal.pone.0092146; cited from earlier work.

The target of data set [7] is T3, panel of 255 wild-type kinases (Homo sapiens, UniProt Q96PN8).
T3 sequence (Q96PN8 1-268): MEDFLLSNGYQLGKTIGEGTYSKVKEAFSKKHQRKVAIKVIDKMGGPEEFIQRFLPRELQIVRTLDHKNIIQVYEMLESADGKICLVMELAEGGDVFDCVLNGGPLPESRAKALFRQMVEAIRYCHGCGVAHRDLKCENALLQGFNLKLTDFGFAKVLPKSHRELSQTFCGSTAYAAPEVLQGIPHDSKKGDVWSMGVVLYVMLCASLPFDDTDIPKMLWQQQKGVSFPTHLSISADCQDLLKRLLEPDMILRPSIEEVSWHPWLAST
To be noted: kinase TSSK3; 1 µmol/L single concentration; ref DOI: 10.1371/journal.pone.0092146; cited from earlier work.

The target of data set [8] is panel of 255 wild-type kinases (Homo sapiens, UniProt Q9H2G2). To be noted: kinase SLK; 1 µmol/L single concentration; ref DOI: 10.1371/journal.pone.0092146; cited from earlier work.

For the compound `CC(=O)Nc1cccc(-n2c(=O)n(C3CC3)c(=O)c3c(Nc4ccc(I)cc4F)n(C)c(=O)c(C)c32)c1` [trametinib], the “%-inhibition CHK2” value in data set [1] is listed as -5%. For the same compound, the “%-inhibition at 1 µmol/L, LCK” value in data set [2] was -7%. Also, the “%-inhibition at 1 µmol/L, FRK” value in data set [3] is recorded as -3%. For the same compound, in data set [4], the “%-inhibition at 1 µmol/L, SRPK2” value was -0.868%. For the same compound, the “%-inhibition at 1 µmol/L, IKKε” value in data set [5] is -3.63%. Besides, the “%-inhibition BRSK2” value in data set [6] is given as 5.38%. The “%-inhibition at 1 µmol/L, TSSK3” value in data set [7] is -8%. Moreover, in data set [8], the “%-inhibition at 1 µmol/L, SLK” value was -2.6%.
`CCCS(=O)(=O)Nc1ccc(F)c(C(=O)c2c[nH]c3ncc(-c4ccc(Cl)cc4)cc23)c1F` [vemurafenib]: the “%-inhibition CHK2” value in data set [1] was 6.32%. For the same compound, the “%-inhibition at 1 µmol/L, LCK” value in data set [2] is reported as 81%. For the same compound, the “%-inhibition at 1 µmol/L, FRK” value in data set [3] is given as 62%. The “%-inhibition at 1 µmol/L, SRPK2” value in data set [4] is on record as -2.2%. Also, in data set [5], the “%-inhibition at 1 µmol/L, IKKε” value is -9%. Moreover, the “%-inhibition BRSK2” value in data set [6] is -6%. The “%-inhibition at 1 µmol/L, TSSK3” value in data set [7] is reported as -3.19%. Moreover, the “%-inhibition at 1 µmol/L, SLK” value in data set [8] is listed as 43%.
